# Experimental data reported in ChEMBL document CHEMBL1142318, “Azetidine based transition state analogue inhibitors of N-ribosyl hydrolases and phosphorylases” (J Med Chem, 2008).
# Assays:
# [1] = target: T1, Purine nucleoside phosphorylase (Plasmodium falciparum, UniProt Q8T9Z7); experiment: Inhibition of Plasmodium falciparum PNP
# T1 sequence (Q8T9Z7 whole entry): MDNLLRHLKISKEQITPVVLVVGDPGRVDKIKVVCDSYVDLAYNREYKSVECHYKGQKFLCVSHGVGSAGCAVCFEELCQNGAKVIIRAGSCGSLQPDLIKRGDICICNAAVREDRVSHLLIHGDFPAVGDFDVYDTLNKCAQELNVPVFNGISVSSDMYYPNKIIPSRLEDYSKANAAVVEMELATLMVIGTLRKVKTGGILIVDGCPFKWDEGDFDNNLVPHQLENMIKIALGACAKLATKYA
# [2] = target: T2, 5'-methylthioadenosine/S-adenosylhomocysteine nucleosidase (Streptococcus pneumoniae serotype 4 (strain ATCC BAA-334 / TIGR4), UniProt A0A0H2UPP7); experiment: Inhibition of Streptococcus pneumoniae MTAN
# T2 sequence (A0A0H2UPP7 whole entry): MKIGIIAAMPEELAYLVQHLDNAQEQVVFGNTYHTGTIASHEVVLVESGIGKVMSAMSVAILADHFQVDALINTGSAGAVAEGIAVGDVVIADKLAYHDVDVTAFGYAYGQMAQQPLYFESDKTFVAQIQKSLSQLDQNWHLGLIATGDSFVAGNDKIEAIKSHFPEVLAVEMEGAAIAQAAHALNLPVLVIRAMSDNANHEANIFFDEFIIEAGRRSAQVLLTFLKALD
# [3] = target: 5'-methylthioadenosine/S-adenosylhomocysteine nucleosidase (Escherichia coli O157:H7, UniProt P0AF14)
# [4] = target: T3, S-methyl-5'-thioadenosine phosphorylase (Homo sapiens, UniProt Q13126); experiment: Inhibition of human MTAP
# T3 sequence (Q13126 whole entry): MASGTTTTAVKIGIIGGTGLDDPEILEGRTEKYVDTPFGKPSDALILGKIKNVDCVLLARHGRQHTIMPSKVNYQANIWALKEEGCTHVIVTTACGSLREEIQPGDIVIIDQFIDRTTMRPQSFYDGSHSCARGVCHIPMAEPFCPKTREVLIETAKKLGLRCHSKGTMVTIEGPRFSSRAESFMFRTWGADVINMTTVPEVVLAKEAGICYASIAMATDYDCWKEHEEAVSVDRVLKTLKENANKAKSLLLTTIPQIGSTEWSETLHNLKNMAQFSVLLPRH
# [5] = target: T4, Purine nucleoside phosphorylase (Homo sapiens, UniProt P00491); experiment: Inhibition of human PNP
# T4 sequence (P00491 whole entry): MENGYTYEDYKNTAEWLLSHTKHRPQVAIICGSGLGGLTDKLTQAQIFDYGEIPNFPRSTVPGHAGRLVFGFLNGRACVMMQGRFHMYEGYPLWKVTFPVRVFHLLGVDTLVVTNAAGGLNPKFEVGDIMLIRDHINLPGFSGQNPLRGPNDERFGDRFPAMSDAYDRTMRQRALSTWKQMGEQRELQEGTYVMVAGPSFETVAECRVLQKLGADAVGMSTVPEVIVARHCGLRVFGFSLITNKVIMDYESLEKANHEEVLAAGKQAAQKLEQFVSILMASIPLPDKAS
# [6] = target: T5, Purine nucleoside phosphorylase (Bos taurus, UniProt P55859); experiment: Inhibition of bovine PNP
# T5 sequence (P55859 whole entry): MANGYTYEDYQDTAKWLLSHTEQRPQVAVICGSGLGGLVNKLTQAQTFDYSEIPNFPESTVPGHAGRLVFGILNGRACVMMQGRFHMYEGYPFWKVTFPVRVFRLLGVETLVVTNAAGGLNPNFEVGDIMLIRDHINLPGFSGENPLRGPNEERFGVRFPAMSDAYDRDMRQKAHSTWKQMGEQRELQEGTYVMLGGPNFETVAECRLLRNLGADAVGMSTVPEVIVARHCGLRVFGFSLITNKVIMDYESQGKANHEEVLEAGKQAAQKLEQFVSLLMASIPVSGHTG
# Sequence of 5'-methylthioadenosine/S-adenosylhomocysteine nucleosidase (Escherichia coli O157:H7, UniProt P0AF14) (P0AF14 whole entry): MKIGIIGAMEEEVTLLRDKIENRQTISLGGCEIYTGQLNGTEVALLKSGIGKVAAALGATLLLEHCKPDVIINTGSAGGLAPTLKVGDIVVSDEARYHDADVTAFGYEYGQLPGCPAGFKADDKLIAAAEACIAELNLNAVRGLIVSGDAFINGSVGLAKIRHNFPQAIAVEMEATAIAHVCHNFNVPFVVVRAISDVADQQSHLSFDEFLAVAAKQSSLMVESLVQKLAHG
Compound,Ki [1] [nM],Ki [2] [nM],Ki [3] [nM],Ki [4] [nM],Ki [5] [nM],Ki [6] [nM]
O=c1[nH]cnc2c(CN3CC(CO)C3)c[nH]c12,> 10000,,,,,
CSC[C@H]1CN(Cc2c[nH]c3c(N)ncnc23)C[C@@H]1O,,24,0.002,0.09,,
CSCC1CN(Cc2c[nH]c3c(N)ncnc23)C1,,84,0.45,,,
O=c1[nH]cnc2c(CN3C(CO)CC3CO)c[nH]c12 (stereo not drawn),1290,,,,12.9,16
CSCC1(CO)CN(Cc2c[nH]c3c(N)ncnc23)C1,,150,0.84,,,
O=c1[nH]cnc2c(CN3CC(CO)(CO)C3)c[nH]c12,> 10000,,,,,
O=c1[nH]cnc2c(CN3[C@@H](CO)C[C@@H]3CO)c[nH]c12 (racemic),580,,,,280,360
O=c1[nH]cnc2c(CN3C[C@H](CO)[C@@H](O)C3)c[nH]c12 [ULODESINE],0.5,,,,0.0107,0.1
